Patent US12570605B2, “Indole compounds, and preparation methods, and uses thereof” (Shenzhen 01 Life Science and Technology Co., Ltd., priority 2021, dated 2026)
Entries after “also recorded” stand apart in the source; their conditions may differ.

What was measured:
[1] = test system: mouse model with ear AD-like symptoms induced by calcipotriol (MC903); assay: Mouse model with ear AD-like symptoms induced by calcipotriol (MC903), first batch of experiments (Embodiment 32); format: in vivo, BALB/c mouse; details: MC903 6.9 nmol/mouse every day
Protocol: (§1) A mouse model with ear AD-like symptoms induced by calcipotriol (MC903) was used to investigate these compounds in terms of the treatment activity for AD.
(§2) Referring to the Patent with a publication number of CN 110368386 A, a mouse model induced by MC903 (Calcipotriene) was prepared, wherein both ears of the BALB/c mouse model were applied with MC903, MC903+indole-3-aldehyde (IAId), or MC903+the compound prepared from the embodiments for 11 consecutive days, respectively, and total serum IgE levels, ear thicknesses, and weight loss in relative to the weight at the beginning of the experiment were tested at the end of the experiment.
(§3) The data shown in the results were average values ±SD of five independently repeated trials. Significance analysis was performed using Mann-Whitney test on the differences of corresponding parameters of the mice with the treatment group (MC903+ethanol (EtOH)), which was only administrated with MC903, wherein * indicated P<0.05, ** indicated P<0.01; *** indicated P<0.001.
In this batch of experiments, the dosage of MC903, a drug for constructing the models, was 6.9 nmol/mouse every day, and the experimental results of Compounds 1, 2, 3, 6, 7, 19, 20, 28, 29, 30, 34, 37, 38, and 39 in this batch were shown in FIGS. 11 to 13.
(§4) EtOH group was a Blank control group, which was only administrated with ethanol. MC903+ EtOH group was a model control group, which was administrated with Calcipotriene and ethanol. The remaining groups were the groups which were administered with MC903 to construct the model, and then administrated with different drugs. Indole-3-aldehyde (IAId) group was the group administered with IAId, indole-3-methanol (I3C) group was the group administered with I3C. The other compound groups were the groups administered with corresponding compounds.

[2] = test system: mouse model with ear AD-like symptoms induced by calcipotriol (MC903); assay: Mouse model with ear AD-like symptoms induced by calcipotriol (MC903), second batch of experiments (Embodiment 32); format: in vivo, BALB/c mouse; details: MC903 5 nmol/mouse every day, 9 days
Protocol: as §1, §2, §3
Therefore, in the second batch of drug tests, the dosage of MC903 was decreased to 5 nmol/mouse every day, and the test period was reduced to 9 days.
as §4, with “then administered” for “then administrated”, “with IAId. Indole-3-methanol” for “with IAId, indole-3-methanol”

[3] = test system: mouse model with ear AD-like symptoms induced by calcipotriol (MC903); assay: Optimum effective concentration in treatment of AD-like symptoms, MC903 mouse model (Embodiment 33); format: in vivo; details: dosages per Table 11; vs group only administrated with MC903
Protocol: The above screened compounds having therapeutic effect on AD-like symptoms were selected to further determine the optimum effective concentration.
Referring to the animal model method in the Embodiment 32, dosages of drugs for each group were determined according to the table below, and the optimal effective concentration in treatment of AD-like symptoms was explored by comparing the differences in ear thicknesses, the total serum IgE levels and the weight loss of the mice with those of the treatment group only administrated with MC903.

[4] = vs model control group (MC903+EtOH), Mann-Whitney test

For `CCCCCCCC(=O)OCn1cc(CO)c2ccccc21` [Compound 38, (3-(hydroxymethyl)-1H-indol-1-yl)methyl octanoate], the “therapeutic effects on AD-like symptoms in the ear of mice (combined with ear inflammation and tissue HE staining)” value ([1]; 11 days) was “significant therapeutic effects”, the “reducing the total serum IgE levels of the mice” value ([1]; both ears, 11 consecutive days, vs model control group (MC903+EtOH), Mann-Whitney test) was “statistically significant difference; also recorded: excellent effects” and the “therapeutic effects on AD-like symptoms in the ear of mice (ear inflammation, tissue HE staining, parameters of multiple experiments)” value ([2]; screening over both batches) was “therapeutic effects”. For the same molecule, the “reducing ear thicknesses of the mice” value [2, 4] was “statistically significant difference”, the “reducing the total serum IgE levels of the mice” value [2, 4] was “statistically significant difference” and the “inhibitory effect on systematic inflammation (lower total serum IgE levels and improvement on AD-like symptoms in the mice ear)” value [3] was “good inhibitory effect; also recorded: excellent inhibitory effect”.
